Counter-ions that a name gives are not always drawn.
Biological target: T1, UDP-galactopyranose mutase (MtbUGM) (Mycobacterium tuberculosis, UniProt P9WIQ1)
T1 construct: gene glf; His6-tagged MtbUGM from pET-29b(+)
Test: HPLC assay, % inhibition at […], […] UDP-Galf
Format: biochemical

T1 sequence (P9WIQ1 whole entry): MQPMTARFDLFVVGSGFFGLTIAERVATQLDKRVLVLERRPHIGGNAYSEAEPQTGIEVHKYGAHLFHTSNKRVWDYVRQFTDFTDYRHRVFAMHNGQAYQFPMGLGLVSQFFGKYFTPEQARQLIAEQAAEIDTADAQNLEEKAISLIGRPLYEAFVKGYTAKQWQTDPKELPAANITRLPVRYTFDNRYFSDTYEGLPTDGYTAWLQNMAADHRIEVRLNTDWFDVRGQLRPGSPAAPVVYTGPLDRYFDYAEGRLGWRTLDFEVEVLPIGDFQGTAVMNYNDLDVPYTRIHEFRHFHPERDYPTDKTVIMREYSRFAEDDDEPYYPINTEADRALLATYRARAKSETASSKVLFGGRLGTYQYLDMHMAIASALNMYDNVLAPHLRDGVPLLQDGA

SMILES | HPLC assay, % inhibition at 60 μM, 15 μM UDP-Galf
O=C(CCc1cn(-c2ccc(Cl)cc2)nn1)Oc1ccc(Cl)cc1 [DA11] | The triazolo analogues, DA11-DA13, showed comparable % inhibition to that of MS208.
Cc1nn(-c2ccc(Cl)cc2)c(O)c1S(=O)(=O)c1ccc(Cl)cc1 [DA5, 4-p-chlorobenzosulfonyl-1-p-chlorophenyl-3-methyl-5-pyrazol hydrochloride] | The sulfonyl derivative, DA5, showed comparable % inhibition to that of the carbonyl derivative MS208.
Cc1nn(-c2ccccc2)c(O)c1C(=O)c1ccc(Cl)cc1 [DA1, 4-p-chlorobenzoyl-1-phenyl-3-methyl-5-pyrazol] | DA1 and DA2 showed comparable inhibition to that of MS208
Cc1nn(-c2ccc(Cl)cc2)c(O)c1C(=O)c1ccccc1 [DA2, 4-benzoyl-1-p-chlorophenyl-3-methyl-5-pyrazol] | DA1 and DA2 showed comparable inhibition to that of MS208
COC(=O)c1ccc(C(=O)Oc2cc(C)nn2-c2ccc(Cl)cc2)cc1 [DA8] | two of these O-acyl analogues, DA8 and DA10 still showed comparable % inhibition to MS208
O=C(c1ccc(Cl)cc1)c1cn(-c2ccc(Cl)cc2)nn1 [DA13, 4-p-chlorobenzoyl-1-p-chlorophenyl-1H-1,2,3-triazole] | The triazolo analogues, DA11-DA13, showed comparable % inhibition to that of MS208.
OC(c1ccc(Cl)cc1)c1cn(-c2ccc(Cl)cc2)nn1 (stereo not drawn) [DA12, [1-(4-chlorophenyl)-1H-1,2,3-triazol-4-yl]-4-chlorophenylmethanol] | The triazolo analogues, DA11-DA13, showed comparable % inhibition to that of MS208.
Cc1nn(-c2ccc(Cl)cc2)c(O)c1C(=O)c1ccc(Cl)cc1 [MS208, 4-p-chlorobenzoyl-1-p-chlorophenyl-3-methyl-5-pyrazol] | DA1 and DA2 showed comparable inhibition to that of MS208

Biological target: T1, UDP-galactopyranose mutase (MtbUGM)
Test: HPLC kinetic assay of UDP-Galf to UDP-Galp, global fit
Format: biochemical

SMILES | Ki [µM]
Cc1cc(OC(=O)c2ccc(S(N)(=O)=O)cc2)n(-c2ccc(Cl)cc2)n1 [DA10, 4-Sulfamoyl-[3-methyl-1-p-chlorophenyl-1H-pyrazol-5-yl] benzoic acid ester] | 51 ± 4

Source: PMC8874540, “Pyrazole and Triazole Derivatives as Mycobacterium tuberculosis UDP-Galactopyranose Inhibitors” (Pharmaceuticals, 2022)
